Data reported in US10118930B2, “Piperidinylpyrazolopyrimidinones and their use” (BAYER PHARMA AKTIENGESELLSCHAFT, priority 2015, dated 2018).
Where a name gives a salt, the structure may show the parent alone.

tested on: clot lysis (fibrinolysis) in diluted human citrated plasma, tPA-induced; assay: Plasma-based clot lysis assay (5%); format: biochemical; settings: human citrated platelet-poor plasma 5%, fibrinogen 3 μM, CaCl2 10 mM, tPA 0.2 nM, 37° C., OD at 405 nm
Outline: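 Clot formation and breakdown triggered by CaCl2 (10 mM final) plus tPA (0.2 nM final) at 37° C, in 5% diluted human plasma supplemented with 3 μM fibrinogen (HEPES/NaCl/Brij buffer, pH 7). IC50 obtained from time courses relative to a blank control.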

Row | Structure (SMILES) | IC50
1 | O=c1cc(C2CCNCC2)n2ncc(-c3nc(-c4cccc(Cl)c4F)no3)c2[nH]1 [Example 132, 3-[3-(3-Chloro-2-fluorophenyl)-1,2,4-oxadiazol-5-yl]-7-(piperidin-4-yl)pyrazolo[1,5-a]pyrimidin-5(4H)-one hydrochloride] | 35 nM
2 | O=c1cc(C2CCNCC2)n2ncc(-c3nc(-c4cccc(Cl)n4)no3)c2[nH]1 [Example 133, 3-[3-(6-Chloropyridin-2-yl)-1,2,4-oxadiazol-5-yl]-7-(piperidin-4-yl)pyrazolo[1,5-a]pyrimidin-5(4H)-one hydrochloride] | 39 nM
3 | O=c1cc(C2CCNCC2)n2ncc(-c3nc(-c4ccc(C(F)(F)F)c(F)c4)no3)c2[nH]1 [Example 134, 3-{3-[3-Fluoro-4-(trifluoromethyl)phenyl]-1,2,4-oxadiazol-5-yl}-7-(piperidin-4-yl)pyrazolo[1,5-a]pyrimidin-5(4H)-one hydrochloride] | 43 nM
4 | O=c1cc(C2CCNCC2)n2ncc(-c3nc(-c4ccc(C(F)(F)F)cc4Cl)no3)c2[nH]1 [Example 136, 3-{3-[2-Chloro-4-(trifluoromethyl)phenyl]-1,2,4-oxadiazol-5-yl}-7-(piperidin-4-yl)pyrazolo[1,5-a]pyrimidin-5(4H)-one hydrochloride] | 43 nM
5 | Cc1cc(C(F)(F)F)ccc1-c1noc(-c2cnn3c(C4CCNCC4)cc(=O)[nH]c23)n1 [Example 139, 3-{3-[2-Methyl-4-(trifluoromethyl)phenyl]-1,2,4-oxadiazol-5-yl}-7-(piperidin-4-yl)pyrazolo[1,5-a]pyrimidin-5(4H)-one hydrochloride] | 41 nM
6 | Cc1c(Cl)cccc1-c1noc(-c2cnn3c(C4CCNCC4)cc(=O)[nH]c23)n1 [Example 140, 3-[3-(3-Chloro-2-methylphenyl)-1,2,4-oxadiazol-5-yl]-7-(piperidin-4-yl)pyrazolo[1,5-a]pyrimidin-5(4H)-one hydrochloride] | 130 nM
7 | Cc1ccc(Cl)cc1-c1noc(-c2cnn3c(C4CCNCC4)cc(=O)[nH]c23)n1 [Example 141, 3-[3-(5-Chloro-2-methylphenyl)-1,2,4-oxadiazol-5-yl]-7-(piperidin-4-yl)pyrazolo[1,5-a]pyrimidin-5(4H)-one hydrochloride] | 74 nM
8 | COc1ccc(-c2noc(-c3cnn4c(C5CCNCC5)cc(=O)[nH]c34)n2)cc1Cl [Example 142, 3-[3-(3-Chloro-4-methoxyphenyl)-1,2,4-oxadiazol-5-yl]-7-(piperidin-4-yl)pyrazolo[1,5-a]pyrimidin-5(4H)-one hydrochloride] | 41 nM
9 | O=c1cc(C2CCNCC2)n2ncc(-c3nc(-c4cccc(Cl)c4Cl)no3)c2[nH]1 [Example 143, 3-[3-(2,3-Dichlorophenyl)-1,2,4-oxadiazol-5-yl]-7-(piperidin-4-yl)pyrazolo[1,5-a]pyrimidin-5 (4H)-one hydrochloride] | 41 nM
10 | O=c1cc(C2CCNCC2)n2ncc(-c3nc(-c4cccc(C(F)(F)F)n4)no3)c2[nH]1 [Example 146, 7-(Piperidin-4-yl)-3-{3-[6-(trifluoromethyl)pyridin-2-yl]-1,2,4-oxadiazol-5-yl}pyrazolo[1,5-a]pyrimidin-5(4H)-one hydrochloride] | 35 nM
11 | O=c1cc(C2CCNCC2)n2ncc(-c3nc(-c4cc(C(F)(F)F)ccn4)no3)c2[nH]1 [Example 147, 7-(piperidin-4-yl)-3-{3-[4-(trifluoromethyl)pyridin-2-yl]-1,2,4-oxadiazol-5-yl}pyrazolo[1,5-a]pyrimidin-5(4H)-one hydrochloride] | 38 nM
12 | O=c1cc(C2CCNCC2)n2ncc(-c3nc(-c4cccnc4Cl)no3)c2[nH]1 [Example 148, 3-[3-(2-Chloropyridin-3-yl)-1,2,4-oxadiazol-5-yl]-7-(piperidin-4-yl)pyrazolo[1,5-a]pyrimidin-5(4H)-one hydrochloride] | 43 nM
13 | O=c1cc(C2CCNCC2)n2ncc(-c3nc(-c4ccc(OC(F)(F)F)c(Cl)c4)no3)c2[nH]1 [Example 149, 3-{3-[3-Chloro-4-(trifluoromethoxy)phenyl]-1,2,4-oxadiazol-5-yl}-7-(piperidin-4-yl)pyrazolo[1,5-a]pyrimidin-5(4H)-one hydrochloride] | 100 nM
14 | O=c1cc(C2CCNCC2)n2ncc(-c3nc(-c4c(Cl)cc(C(F)(F)F)cc4Cl)no3)c2[nH]1 [Example 150, 3-{3-[2,6-Dichloro-4-(trifluoromethyl)phenyl]-1,2,4-oxadiazol-5-yl}-7-(piperidin-4-yl)pyrazolo[1,5-a]pyrimidin-5(4H)-one hydrochloride] | 45 nM
15 | O=c1cc(C2CCNCC2)n2ncc(-c3nc(-c4cc(Cl)cc(Cl)c4)no3)c2[nH]1 [Example 151, 3-[3-(3,5-Dichlorophenyl)-1,2,4-oxadiazol-5-yl]-7-(piperidin-4-yl)pyrazolo[1,5-a]pyrimidin-5 (4H)-one hydrochloride] | 44 nM
16 | O=c1cc(C2CCNCC2)n2ncc(-c3nc(-c4ccc(C(F)(F)F)cc4C(F)(F)F)no3)c2[nH]1 [Example 152, 3-{3-[2,4-Bis(trifluoromethyl)phenyl]-1,2,4-oxadiazol-5-yl}-7-(piperidin-4-yl)pyrazolo[1,5-a]pyrimidin-5(4H)-one hydrochloride] | 43 nM
17 | O=c1cc(C2CCNCC2)n2ncc(-c3nc(-c4ccc(Cl)cc4)no3)c2[nH]1 [Example 157, 3-[3-(4-chlorophenyl)-1,2,4-oxadiazol-5-yl]-7-(piperidin-4-yl)pyrazolo[1,5-a]pyrimidin-5 (4H)-one hydrochloride] | 56 nM
18 | O=c1cc(C2CCNCC2)n2ncc(-c3nc(-c4ccc(F)cc4F)no3)c2[nH]1 [Example 158, 3-[3-(2,4-difluorophenyl)-1,2,4-oxadiazol-5-yl]-7-(piperidin-4-yl)pyrazolo[1,5-a]pyrimidin-5(4H)-one hydrochloride] | 38 nM
19 | COc1ccccc1-c1noc(-c2cnn3c(C4CCNCC4)cc(=O)[nH]c23)n1 [Example 160, 3-[3-(2-methoxyphenyl)-1,2,4-oxadiazol-5-yl]-7-(piperidin-4-yl)pyrazolo[1,5-a]pyrimidin-5(4H)-one hydrochloride] | 73 nM
20 | O=c1cc(C2CCNCC2)n2ncc(-c3cccc(-c4ccc(C(F)(F)F)cc4)c3)c2[nH]1 [Example 162, 7-(piperidin-4-yl)-3-[4′-(trifluoromethyl)biphenyl-3-yl]pyrazolo[1,5-a]pyrimidin-5(4H)-one hydrochloride] | 140 nM
21 | O=c1cc(C2CCNCC2)n2ncc(-c3nc(-c4cccc(Cl)c4)cs3)c2[nH]1 [Example 163, 3-[4-(3-chlorophenyl)-1,3-thiazol-2-yl]-7-(piperidin-4-yl)pyrazolo[1,5-a]pyrimidin-5 (4H)-one hydrochloride] | 40 nM
22 | O=c1cc(C2CCNCC2)n2ncc(-c3nnc(-c4ccccc4C(F)(F)F)o3)c2[nH]1 [Example 172, 7-(piperidin-4-yl)-3-{5-[2-(trifluoromethyl)phenyl]-1,3,4-oxadiazol-2-yl}pyrazolo[1,5-a]pyrimidin-5(4H)-one hydrochloride] | 59 nM

Results, then the compound that gave them:

Row | IC50 | Structure (SMILES)
23 | 31 nM | O=c1cc(C2CCNCC2)n2ncc(-c3nc(-c4cc(Cl)ccc4F)no3)c2[nH]1 [Example 137, 3-[3-(5-Chloro-2-fluorophenyl)-1,2,4-oxadiazol-5-yl]-7-(piperidin-4-yl)pyrazolo[1,5-a]pyrimidin-5(4H)-one hydrochloride]
24 | 28 nM | O=c1cc(C2CCNCC2)n2ncc(-c3nc(-c4cc(Cl)ccc4C(F)(F)F)no3)c2[nH]1 [Example 145, 3-{3-[5-Chloro-2-(trifluoromethyl)phenyl]-1,2,4-oxadiazol-5-yl}-7-(piperidin-4-yl)pyrazolo[1,5-a]pyrimidin-5(4H)-one hydrochloride]
25 | 24 nM | COc1ccc(-c2noc(-c3cnn4c(C5CCNCC5)cc(=O)[nH]c34)n2)c(C)c1 [Example 154, 3-[3-(4-methoxy-2-methylphenyl)-1,2,4-oxadiazol-5-yl]-7-(piperidin-4-yl)pyrazolo[1,5-a]pyrimidin-5(4H)-one hydrochloride]
26 | 23 nM | O=c1cc(C2CCNCC2)n2ncc(-c3nc(-c4ccccc4F)no3)c2[nH]1 [Example 159, 3-[3-(2-fluorophenyl)-1,2,4-oxadiazol-5-yl]-7-(piperidin-4-yl)pyrazolo[1,5-a]pyrimidin-5(4H)-one hydrochloride]
27 | 34 nM | CC(C)(C)c1nnc(-c2cnn3c(C4CCNCC4)cc(=O)[nH]c23)o1 [Example 165, 3-(5-tert-butyl-1,3,4-oxadiazol-2-yl)-7-(piperidin-4-yl)pyrazolo[1,5-a]pyrimidin-5 (4H)-one hydrochloride]
28 | 8.7 nM | O=c1cc(C2CCNCC2)n2ncc(-c3nnc(-c4ccc(C(F)(F)F)cc4)o3)c2[nH]1 [Example 166, 7-(piperidin-4-yl)-3-{5-[4-(trifluoromethyl)phenyl]-1,3,4-oxadiazol-2-yl}pyrazolo[1,5-a]pyrimidin-5(4H)-one hydrochloride]
29 | 34 nM | N#Cc1ccc(-c2nnc(-c3cnn4c(C5CCNCC5)cc(=O)[nH]c34)o2)cc1 [Example 167, 4-{5-[5-oxo-7-(piperidin-4-yl)-4,5-dihydropyrazolo[1,5-a]pyrimidin-3-yl]-1,3,4-oxadiazol-2-yl}benzonitrile hydrochloride]
30 | 33 nM | Cn1cncc1-c1nnc(-c2cnn3c(C4CCNCC4)cc(=O)[nH]c23)o1 [Example 168, 3-[5-(1-methyl-1H-imidazol-5-yl)-1,3,4-oxadiazol-2-yl]-7-(piperidin-4-yl)pyrazolo[1,5-a]pyrimidin-5(4H)-one hydrochloride]
31 | 34 nM | Cc1ccc(-c2nnc(-c3cnn4c(C5CCNCC5)cc(=O)[nH]c34)o2)cc1 [Example 170, 3-[5-(4-methylphenyl)-1,3,4-oxadiazol-2-yl]-7-(piperidin-4-yl)pyrazolo[1,5-a]pyrimidin-5 (4H)-one hydrochloride]
32 | 34 nM | COCc1nnc(-c2cnn3c(C4CCNCC4)cc(=O)[nH]c23)o1 [Example 173, 3-[5-(methoxymethyl)-1,3,4-oxadiazol-2-yl]-7-(piperidin-4-yl)pyrazolo[1,5-a]pyrimidin-5(4H)-one hydrochloride]
